Experimental data as given in patent US7671079B2, “Sulfonyltetrahydro-3H-benzo(e)indole-8-amine compounds as 5-hydroxytryptamine-6 ligands” (Wyeth LLC, priority 2003, dated 2010).

Target: T1, human cloned 5-HT6 receptors (Homo sapiens, UniProt P50406)
T1 construct: expressed in transfected cells; host or cells: Hela cells
Experiment: 5-HT6 binding affinity, [3H]-LSD displacement on membranes of Hela cells expressing human cloned 5-HT6 receptors
Conditions: [3H]-LSD 3.0 nM, Hela cell membranes, 120 min at room temperature
Description: The affinity of test compounds for the serotonin 5-HT6 receptor is evaluated in the following manner. Cultured Hela cells expressing human cloned 5-HT6 receptors are harvested and centrifuged at low speed (1,000×g) for 10.0 min to remove the culture media. The harvested cells are suspended in half volume of fresh physiological phosphate buffered saline solution and recentrifuged at the same speed. This operation is repeated. The collected cells are then homogenized in ten volumes of 50 mM Tris.HCl (pH 7.4) and 0.5 mM EDTA. The homogenate is centrifuged at 40,000×g for 30.0 min and the precipitate is collected. The obtained pellet is resuspended in 10 volumes of Tris.HCl buffer and recentrifuged at the same speed. The final pellet is suspended in a small volume of Tris.HCl buffer and the tissue protein content is determined in aliquots of 10-25 μl volumes. Bovine Serum Albumin is used as the standard in the protein determination according to the method described in Lowry et al., J. Biol. Chem., 193:265 (1951). The volume of the suspended cell membranes is adjusted to give a tissue protein concentration of 1.0 mg/ml of suspension. The prepared membrane suspension (10 times concentrated) is aliquoted in 1.0 ml volumes and stored at −70° C. until used in subsequent binding experiments.
Binding experiments are performed in a 96 well microtiter plate format, in a total volume of 200 μl. […] The test compounds are added in 20.0 μl volume.
The reaction is allowed to proceed in the dark for 120 min at room temperature, at which time, the bound ligand-receptor complex is filtered off on a 96 well unifilter with a Packard Filtermate® 196 Harvester. The bound complex caught on the filter disk is allowed to air dry and the radioactivity is measured in a Packard TopCount® equipped with six photomultiplier detectors, after the addition of 40.0 μl Microscint®-20 scintillant to each shallow well. The unifilter plate is heat-sealed and counted in a PackardTopCount® with a tritium efficiency of 31.0%.
Binding in the presence of varying concentrations of test compound is expressed as a percentage of specific binding in the absence of test compound. The results are plotted as log % bound versus log concentration of test compound. […] A linear regression line of data points is plotted, from which the IC50 value is determined and the Ki value is determined based upon the following equation: Ki=IC50/(1+L/KD) where L is the concentration of the radioactive ligand used and KD is the dissociation constant of the ligand for the receptor, both expressed in nM.

T1 sequence (P50406 whole entry): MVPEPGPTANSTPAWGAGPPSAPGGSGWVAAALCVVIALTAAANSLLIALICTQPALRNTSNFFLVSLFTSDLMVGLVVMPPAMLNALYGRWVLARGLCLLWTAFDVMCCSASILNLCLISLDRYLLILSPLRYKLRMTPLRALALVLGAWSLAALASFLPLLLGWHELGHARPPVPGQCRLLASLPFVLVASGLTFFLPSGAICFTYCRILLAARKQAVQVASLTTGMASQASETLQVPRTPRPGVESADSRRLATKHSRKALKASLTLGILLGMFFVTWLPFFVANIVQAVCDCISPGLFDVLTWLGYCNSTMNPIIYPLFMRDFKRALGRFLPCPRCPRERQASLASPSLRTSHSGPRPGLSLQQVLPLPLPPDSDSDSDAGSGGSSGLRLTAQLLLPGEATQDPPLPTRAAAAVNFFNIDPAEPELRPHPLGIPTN

Compound	Ki
3-[(2,3-dichlorophenyl)sulfonyl]-N,N-dimethyl-6,7,8,9-tetrahydro-3H-benzo[e]indol-8-amine [Example 16]	6 nM
3-[(2,6-dichloroimidazo[2,1-b][1,3]thiazol-5-yl)sulfonyl]-N,N-dimethyl-6,7,8,9-tetrahydro-3H-benzo[e]indol-8-amine [Example 19]	5 nM
CN(C)C1CCc2ccc3c(ccn3S(=O)(=O)c3ccccc3)c2C1 (stereo not shown) [Example 8, N,N-Dimethyl-3-(Phenylsulfonyl)-6,7,8,9-tetrahydro-3H-benzo[e]indol-8-amine]	1 nM
CN(C)C1CCc2ccc3c(ccn3S(=O)(=O)c3ccc(OC(F)(F)F)cc3)c2C1 (stereo not shown) [Example 9]	79 nM
CN(C)C1CCc2ccc3c(ccn3S(=O)(=O)c3ccc(F)cc3)c2C1 (stereo not shown) [Example 11, 3-[(4-fluorophenyl)sulfonyl]-N,N-dimethyl-6,7,8,9-tetrahydro-3H-benzo[e]indol-8-amine]	19 nM
CN(C)C1CCc2ccc3c(ccn3S(=O)(=O)c3ccc(C(F)(F)F)cc3Cl)c2C1 (stereo not shown) [Example 12]	55 nM
CN(C)C1CCc2ccc3c(ccn3S(=O)(=O)c3ccc(F)c(F)c3)c2C1 (stereo not shown) [Example 13, 3-[(3,4-difluorophenyl)sulfonyl]-N,N-dimethyl-6,7,8,9-tetrahydro-3H-benzo[e]indol-8-amine]	9 nM
CN(C)C1CCc2ccc3c(ccn3S(=O)(=O)c3ccccc3Cl)c2C1 (stereo not shown) [Example 14, 3-[(2-chlorophenyl)sulfonyl]-N,N-dimethyl-6,7,8,9-tetrahydro-3H-benzo[e]indol-8-amine]	2 nM
CN(C)C1CCc2ccc3c(ccn3S(=O)(=O)c3cccc(Cl)c3)c2C1 (stereo not shown) [Example 15, 3-[(3-chlorophenyl)sulfonyl]-N,N-dimethyl-6,7,8,9-tetrahydro-3H-benzo[e]indol-8-amine]	2 nM
CN(C)C1CCc2ccc3c(ccn3S(=O)(=O)c3ccc(F)cc3F)c2C1 (stereo not shown) [Example 17, 3-[(2,4-diflorophenyl)sulfonyl]-N,N-dimethyl-6,7,8,9-tetrahydro-3H-benzo[e]indol-8-amine]	8 nM
CN(C)C1CCc2ccc3c(ccn3S(=O)(=O)c3c(Cl)nc4sccn34)c2C1 (stereo not shown) [Example 18, 3-[(6-chloroimidazo[2,1-b][1,3]thiazol-5-yl)sulfonyl]-N,N-dimethyl-6,7,8,9-tetrahydro-3H-benzo[e]indol-8-amine]	6 nM
Cc1noc(C)c1S(=O)(=O)n1ccc2c3c(ccc21)CCC(N(C)C)C3 (stereo not shown) [Example 20]	59 nM
Cc1ccc(S(=O)(=O)n2ccc3c4c(ccc32)CCC(NC2CC2)C4)cc1 (stereo not shown) [Example 21]	103 nM
Cc1ccc(S(=O)(=O)n2ccc3c4c(ccc32)CCC(NC2CCC2)C4)cc1 (stereo not shown) [Example 24]	36 nM
CCCNC1CCc2ccc3c(ccn3S(=O)(=O)c3ccc(C)cc3)c2C1 (stereo not shown) [Example 25]	12 nM
N,N-dimethyl-3-(2-naphthylsulfonyl)-6,7,8,9-tetrahydro-3H-benzo[e]indol-8-amine [Example 10]	13 nM
